Tests used:
Format in all cases: cell-based
Settings in all cases: MM1 S cells, 0.3, 3 and 30 μM, 6 hours
IKZF1 = target: T1, IKZF1 (Homo sapiens, UniProt Q13422+Q96SW2); test: Selectivity western blot assay in MM1 S cells, IKZF1; parameters: key: A represents no degradation observed at 30 μM; B represents trace degradation at 30 μM (below 20%); C represents weak degradation at 30 μM (below 50%); D represents degradation at 30 μM (>90%); E represents degradation at 3 μM (>90%); F represents degradation at 0.3 μM (>90%)
T1 construct: endogenous in cells; host or cells: MM1 S (ATCC CRL-2974)
T1 sequence (Q13422 whole entry): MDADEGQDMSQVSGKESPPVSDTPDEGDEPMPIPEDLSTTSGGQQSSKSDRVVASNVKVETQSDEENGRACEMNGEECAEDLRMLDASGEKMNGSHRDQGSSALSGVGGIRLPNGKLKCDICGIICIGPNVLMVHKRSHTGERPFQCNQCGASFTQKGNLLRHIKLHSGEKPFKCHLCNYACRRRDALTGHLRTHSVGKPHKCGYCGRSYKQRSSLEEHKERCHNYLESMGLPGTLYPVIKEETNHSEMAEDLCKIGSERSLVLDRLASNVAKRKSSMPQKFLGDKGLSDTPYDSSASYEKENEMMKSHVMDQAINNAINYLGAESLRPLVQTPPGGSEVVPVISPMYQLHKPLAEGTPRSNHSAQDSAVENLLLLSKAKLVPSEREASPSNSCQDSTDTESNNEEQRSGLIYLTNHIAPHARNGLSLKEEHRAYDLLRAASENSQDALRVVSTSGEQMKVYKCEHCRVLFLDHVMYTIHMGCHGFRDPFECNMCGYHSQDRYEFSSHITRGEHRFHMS
T1 sequence (Q96SW2 whole entry): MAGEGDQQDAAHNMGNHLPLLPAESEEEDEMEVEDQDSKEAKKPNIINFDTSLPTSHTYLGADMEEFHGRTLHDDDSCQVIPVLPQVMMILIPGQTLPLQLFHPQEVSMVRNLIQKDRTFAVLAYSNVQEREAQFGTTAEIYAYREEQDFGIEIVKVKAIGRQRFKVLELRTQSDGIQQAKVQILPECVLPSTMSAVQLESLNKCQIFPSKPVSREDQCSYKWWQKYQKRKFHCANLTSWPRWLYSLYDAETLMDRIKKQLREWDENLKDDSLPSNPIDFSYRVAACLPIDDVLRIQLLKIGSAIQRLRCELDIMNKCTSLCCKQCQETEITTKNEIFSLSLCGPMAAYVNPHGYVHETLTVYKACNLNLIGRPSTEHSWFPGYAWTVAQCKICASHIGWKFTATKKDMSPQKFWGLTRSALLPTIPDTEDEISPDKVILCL
T1 sequence (Q16531 whole entry partner): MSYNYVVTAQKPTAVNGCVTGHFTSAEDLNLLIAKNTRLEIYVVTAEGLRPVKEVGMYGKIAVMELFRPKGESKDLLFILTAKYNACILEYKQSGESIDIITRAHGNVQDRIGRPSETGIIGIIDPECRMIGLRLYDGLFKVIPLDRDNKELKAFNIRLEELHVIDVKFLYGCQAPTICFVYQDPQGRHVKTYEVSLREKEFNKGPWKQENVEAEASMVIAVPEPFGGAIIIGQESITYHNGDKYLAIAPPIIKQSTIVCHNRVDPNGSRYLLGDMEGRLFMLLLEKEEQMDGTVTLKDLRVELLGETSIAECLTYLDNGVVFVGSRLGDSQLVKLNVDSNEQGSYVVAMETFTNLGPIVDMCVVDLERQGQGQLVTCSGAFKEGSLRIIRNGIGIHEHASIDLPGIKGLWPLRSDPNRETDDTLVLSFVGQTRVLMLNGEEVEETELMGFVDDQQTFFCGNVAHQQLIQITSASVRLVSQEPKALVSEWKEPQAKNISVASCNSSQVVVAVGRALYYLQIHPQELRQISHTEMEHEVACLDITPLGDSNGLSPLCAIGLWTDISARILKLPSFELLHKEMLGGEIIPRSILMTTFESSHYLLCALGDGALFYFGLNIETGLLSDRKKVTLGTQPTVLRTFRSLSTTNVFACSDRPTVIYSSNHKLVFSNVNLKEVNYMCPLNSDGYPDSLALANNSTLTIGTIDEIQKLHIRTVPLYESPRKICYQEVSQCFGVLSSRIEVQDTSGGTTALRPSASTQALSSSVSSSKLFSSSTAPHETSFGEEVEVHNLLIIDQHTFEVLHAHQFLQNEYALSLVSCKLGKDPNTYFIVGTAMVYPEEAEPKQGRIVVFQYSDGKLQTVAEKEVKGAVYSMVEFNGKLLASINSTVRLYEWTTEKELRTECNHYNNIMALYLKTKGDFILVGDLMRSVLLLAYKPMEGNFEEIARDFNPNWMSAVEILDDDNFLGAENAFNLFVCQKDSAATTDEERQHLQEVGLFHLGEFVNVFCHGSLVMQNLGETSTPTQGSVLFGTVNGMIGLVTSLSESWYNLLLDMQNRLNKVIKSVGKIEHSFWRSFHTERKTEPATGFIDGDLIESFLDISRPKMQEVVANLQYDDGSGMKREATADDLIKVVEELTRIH
Description: (§1) MM1 S cells were purchased from ATCC (cat. Number CRL-2974), sub-cultured in 90% RPMI 1640 with 10% FBS, supplemented with 1×P/S and incubated at 37° C., 5% CO2. Compounds were stored as 10 mM DMSO stock. For the assay, MM1 S cells (3 million cells/well) were plated in 6-well plates and incubated over night. Cells were treated with respective compounds using a serial dilution: 0.3 μM, 3 μM and 30 μM as well as a vehicle only (DMSO) control for 6 hours. Media with suspension cells was subsequently transferred to 15 mL conical tubes, wells rinsed twice with ice-cold PBS and merged with cell suspension in respective 15 mL conical tube. Cells were spinned down, supernatant aspirated, pellets resuspended in ice-cold PBS and transferred to microtubes. Cells were spinned down, supernatant aspirated and pellets resuspended in 120 μL RIPA lysis buffer supplemented with protease and phosphatase inhibitors. Cell lysates were incubated on ice for 20 minutes followed by centrifugation at >20,000×g for 5 min. Supernatants were transferred to fresh microtubes and stored at −80° C. Total protein concentration was determined using a BCA assay with a BSA standard curve and concentration of all samples was adjusted to 1 mg/mL. 25 μL 4×LDS sample buffer supplemented with 100 mM DTT was added to 75 μL sample. Samples were centrifuged (8,000×g, 1 min) and incubated at 95° C. for 5 min followed by another centrifugation step (8,000×g, 1 min). 20 μL of each sample was loaded on a 4-12% gel alongside a protein molecular weight marker. Gels were run in the presence of MOPS buffer at 80 Volts for 30 min, followed by 120 Volts for 1.5 h and proteins subsequently transferred onto nitrocellulose membranes at 20 Volts for 7 min using an iBlot2 Gel Transfer Device. Membranes were then cut horizontally into two pieces, covering 80-50 kDa and 50-25 kDa. Blocking the membranes was performed by gently shaking in 5% (w/v) skim milk in TSB-T for 1 hr at room temperature. All primary antibodies were used at a 1/1000 in 5% (w/v) BSA dissolved in TBST and incubated with membranes over night at 4° C. After three washes with 1×TBST for 5 min, HRP-coupled secondary antibodies diluted in 5% (w/v) BSA/TBST (Goat Anti-Rb IgG, dil. 1/10,000; Goat Anti-Mouse IgG, dil. 1/5000) were added for 1 hr at room temperature. After three washes with 1×TBST (5 minutes each), membranes were incubated with ECL reagent for 1 min at room temperature. Chemiluminescence signals were then detected using a LAS-4000 system with default settings and signals quantified using Image Studio Lite software (version 5.2). Membrane parts previously incubated with antibody against CK1 alpha were stripped off antibodies by incubating with stripping buffer for 30 minutes followed by three washed with TBST (5 min each), blocking with 5% (w/v) skim milk for 1 hr, and incubation with primary antibody against uGAPDH overnight at 4° C. Subsequent washes, incubation with secondary antibody and signal acquisition were performed as described above.

IKZF3 = target: T2, IKZF3 (Homo sapiens, UniProt Q96SW2+Q9UKT9); test: Selectivity western blot assay in MM1 S cells, IKZF3
T2 construct: endogenous in cells; host or cells: MM1 S (ATCC CRL-2974)
T2 sequence (Q9UKT9 whole entry): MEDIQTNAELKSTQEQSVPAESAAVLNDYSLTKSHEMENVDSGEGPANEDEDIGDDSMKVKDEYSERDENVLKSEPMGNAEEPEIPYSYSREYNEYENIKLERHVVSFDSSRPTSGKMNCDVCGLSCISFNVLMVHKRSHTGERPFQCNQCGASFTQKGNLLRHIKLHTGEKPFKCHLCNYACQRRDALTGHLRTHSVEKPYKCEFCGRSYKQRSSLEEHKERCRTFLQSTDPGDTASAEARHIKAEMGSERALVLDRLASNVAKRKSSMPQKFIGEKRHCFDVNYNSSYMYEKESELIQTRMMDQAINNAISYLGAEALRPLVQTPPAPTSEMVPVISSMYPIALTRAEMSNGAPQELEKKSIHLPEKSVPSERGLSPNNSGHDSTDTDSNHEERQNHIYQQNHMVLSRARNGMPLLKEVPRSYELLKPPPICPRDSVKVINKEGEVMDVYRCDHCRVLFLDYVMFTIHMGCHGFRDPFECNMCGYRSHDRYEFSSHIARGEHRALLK
T2 sequence (Q96SW2 whole entry): as the sequence (Q96SW2 whole entry) above
T2 sequence (Q16531 whole entry partner): as the sequence (Q16531 whole entry partner) above
Description: as §1

CK1alpha = target: T3, CK1alpha (Homo sapiens, UniProt P48729+Q96SW2); test: Selectivity western blot assay in MM1 S cells, CK1alpha; parameters: key: A represents no degradation observed at 30 μM; B represents trace degradation at 30 μM (below 20%); C represents weak degradation at 30 μM (below 50%); D represents degradation at 30 μM (>90%); E represents degradation at 3 μM (>90%); F represents degradation at 0.3 μM (>90%)
T3 construct: endogenous in cells; host or cells: MM1 S (ATCC CRL-2974)
T3 sequence (P48729 whole entry): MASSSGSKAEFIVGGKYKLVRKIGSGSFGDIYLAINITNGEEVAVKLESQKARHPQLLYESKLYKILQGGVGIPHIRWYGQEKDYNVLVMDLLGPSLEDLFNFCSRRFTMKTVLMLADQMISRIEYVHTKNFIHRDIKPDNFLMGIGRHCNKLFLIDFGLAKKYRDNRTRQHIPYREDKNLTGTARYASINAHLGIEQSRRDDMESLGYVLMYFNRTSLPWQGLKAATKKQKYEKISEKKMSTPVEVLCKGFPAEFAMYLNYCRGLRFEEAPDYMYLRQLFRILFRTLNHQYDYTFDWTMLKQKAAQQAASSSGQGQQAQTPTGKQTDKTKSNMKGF
T3 sequence (Q96SW2 whole entry): as the sequence (Q96SW2 whole entry) above
T3 sequence (Q16531 whole entry partner): as the sequence (Q16531 whole entry partner) above
Description: as §1

ZFP91 = target: T4, ZFP91 (Homo sapiens, UniProt Q96JP5+Q96SW2); test: Selectivity western blot assay in MM1 S cells, ZFP91; parameters: key: A represents no degradation observed at 30 μM; B represents trace degradation at 30 μM (below 20%); C represents weak degradation at 30 μM (below 50%); D represents degradation at 30 μM (>90%); E represents degradation at 3 μM (>90%); F represents degradation at 0.3 μM (>90%)
T4 construct: endogenous in cells; host or cells: MM1 S (ATCC CRL-2974)
T4 sequence (Q96JP5 whole entry): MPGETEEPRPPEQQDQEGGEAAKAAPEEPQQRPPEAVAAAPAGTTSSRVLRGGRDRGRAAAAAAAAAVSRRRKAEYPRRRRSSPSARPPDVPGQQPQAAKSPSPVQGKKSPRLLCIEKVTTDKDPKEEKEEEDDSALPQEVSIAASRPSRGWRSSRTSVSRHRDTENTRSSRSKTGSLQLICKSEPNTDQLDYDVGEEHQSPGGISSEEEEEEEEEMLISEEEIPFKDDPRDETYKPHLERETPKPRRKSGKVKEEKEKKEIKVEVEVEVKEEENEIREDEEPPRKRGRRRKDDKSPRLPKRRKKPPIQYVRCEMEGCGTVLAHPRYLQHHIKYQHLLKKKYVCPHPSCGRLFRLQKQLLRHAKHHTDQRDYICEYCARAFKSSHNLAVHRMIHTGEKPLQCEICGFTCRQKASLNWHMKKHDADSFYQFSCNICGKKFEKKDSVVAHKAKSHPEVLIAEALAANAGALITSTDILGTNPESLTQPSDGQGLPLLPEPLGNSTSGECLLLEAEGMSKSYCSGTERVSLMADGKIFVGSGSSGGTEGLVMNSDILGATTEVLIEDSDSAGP
T4 sequence (Q96SW2 whole entry): as the sequence (Q96SW2 whole entry) above
T4 sequence (Q16531 whole entry partner): as the sequence (Q16531 whole entry partner) above
Description: as §1

GSPT1 = GSPT1 (Homo sapiens, UniProt P15170+Q96SW2); test: Selectivity western blot assay in MM1 S cells, GSPT1; parameters: endogenous in cells; host or cells: MM1 S (ATCC CRL-2974)
Sequence of GSPT1 (P15170 whole entry): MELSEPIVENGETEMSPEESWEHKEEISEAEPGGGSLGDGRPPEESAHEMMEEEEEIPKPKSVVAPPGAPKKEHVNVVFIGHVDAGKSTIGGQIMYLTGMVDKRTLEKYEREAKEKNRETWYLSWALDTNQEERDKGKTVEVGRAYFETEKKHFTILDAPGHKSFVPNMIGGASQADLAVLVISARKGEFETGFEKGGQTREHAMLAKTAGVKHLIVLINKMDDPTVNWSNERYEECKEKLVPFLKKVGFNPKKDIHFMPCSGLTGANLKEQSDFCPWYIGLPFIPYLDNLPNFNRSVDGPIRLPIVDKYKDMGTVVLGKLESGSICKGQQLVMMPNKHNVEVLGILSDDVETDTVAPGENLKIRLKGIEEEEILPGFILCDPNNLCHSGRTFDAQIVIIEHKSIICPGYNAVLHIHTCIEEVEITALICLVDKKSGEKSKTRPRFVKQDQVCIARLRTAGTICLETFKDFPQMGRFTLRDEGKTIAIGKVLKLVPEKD
Sequence of GSPT1 (Q96SW2 whole entry): as the sequence (Q96SW2 whole entry) above
Sequence of GSPT1 (Q16531 whole entry partner): as the sequence (Q16531 whole entry partner) above
Description: as §1

SMILES | IKZF1 degradation (IKZF1) | IKZF3 degradation (IKZF3) | CK1alpha degradation (CK1alpha) | ZFP91 degradation (ZFP91) | GSPT1 degradation (GSPT1)
Cc1ccc(NC(=O)NCc2ccc3c(c2)C(=O)N(C2CCC(=O)NC2=O)C3)cc1Cl (centres unmarked) [Compound 8] | A | B (B represents trace degradation at 30 μM (below 20%)) | A | B (B represents trace degradation at 30 μM (below 20%)) | F (F represents degradation at 0.3 μM (>90%))
Cc1c(Cl)cc(NC(=O)NCc2ccc3c(c2)C(=O)N(C2CCC(=O)NC2=O)C3)cc1CN1C2CCC1COC2 (centres unmarked) [Compound 138] | C (C represents weak degradation at 30 μM (below 50%)) | B (B represents trace degradation at 30 μM (below 20%)) | A | A | F (F represents degradation at 0.3 μM (>90%))
Cc1ccc(NC(=O)OCc2ccc3c(c2)C(=O)N(C2CCC(=O)NC2=O)C3)cc1Cl (centres unmarked) [Compound 210] | A | B (B represents trace degradation at 30 μM (below 20%)) | B (B represents trace degradation at 30 μM (below 20%)) | – | D (D represents degradation at 30 μM (>90%))

Source: US20240261274A1, “TREATMENT OF MYC-DRIVEN CANCERS WITH GSPT1 DEGRADERS” (MONTE ROSA THERAPEUTICS, INC., priority 2021, published 2024)
